Experiment [1] deals with T1, human GSK3α (Homo sapiens, UniProt P49840).
T1 construct: Full length human GSK3α or GSK3B expressed as N-terminal GST fusion proteins; GST (N); purchased Carna Biosciences (Japan); host or cells: baculovirus host
In words: In vitro enzymatic activity assay, GSK3α. In kind it is biochemical. As to conditions: 1.0 mM ATP, 1.0 μM peptide substrate, 120 min, 25° C.

Experiment [2] addresses T2, GSK3A (Homo sapiens, UniProt P49840).
T2 construct: expressed in transfected cells
Kind of experiment: NanoBRET cellular target engagement assay, Nanoluc-GSK3A in HEK293 cells. Format: cell-based. As to conditions: NanoBRET GSK3α IC50, HEK293 cells, tracer K-8, 2 hours, 37° C. A general note: Bioluminescence resonance energy transfer reports proximity on the nanometre scale.

Experiment [3] concerns the target T3, GSK3B (Homo sapiens, UniProt P49841). Kind of experiment: NanoBRET cellular target engagement assay, Nanoluc-GSK3B in HEK293 cells. The note with it: NanoBRET GSK3β IC50, HEK293 cells, tracer K-8, 2 hours, 37° C. Format: cell-based. Further details: expressed in transfected cells.
For experiment [4], the target named is T3, GSK3B. In words: In vitro enzymatic activity assay, GSK3β. In kind it is biochemical. On the set-up: Full length human GSK3α or GSK3B expressed as N-terminal GST fusion proteins; GST (N); purchased Carna Biosciences (Japan); host or cells: baculovirus host. The note with it: 1.0 mM ATP, 1.0 μM peptide substrate, 120 min, 25° C.

Counter-ions that a name gives are not always drawn. Like-named read-outs stand apart in the source and are kept apart here.

T3 sequence (P49841 whole entry, the tested form may be a part): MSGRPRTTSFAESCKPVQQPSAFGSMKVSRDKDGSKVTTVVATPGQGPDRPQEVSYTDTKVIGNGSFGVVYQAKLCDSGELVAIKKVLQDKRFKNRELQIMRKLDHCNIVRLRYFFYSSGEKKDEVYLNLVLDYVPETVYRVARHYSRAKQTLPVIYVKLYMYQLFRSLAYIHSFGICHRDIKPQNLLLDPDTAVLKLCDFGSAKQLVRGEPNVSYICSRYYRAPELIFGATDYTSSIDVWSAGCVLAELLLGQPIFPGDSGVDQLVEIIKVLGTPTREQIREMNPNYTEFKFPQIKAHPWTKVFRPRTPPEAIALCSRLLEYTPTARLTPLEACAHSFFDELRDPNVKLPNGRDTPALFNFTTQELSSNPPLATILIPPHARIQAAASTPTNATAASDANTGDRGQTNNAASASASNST
T2 sequence (P49840 whole entry): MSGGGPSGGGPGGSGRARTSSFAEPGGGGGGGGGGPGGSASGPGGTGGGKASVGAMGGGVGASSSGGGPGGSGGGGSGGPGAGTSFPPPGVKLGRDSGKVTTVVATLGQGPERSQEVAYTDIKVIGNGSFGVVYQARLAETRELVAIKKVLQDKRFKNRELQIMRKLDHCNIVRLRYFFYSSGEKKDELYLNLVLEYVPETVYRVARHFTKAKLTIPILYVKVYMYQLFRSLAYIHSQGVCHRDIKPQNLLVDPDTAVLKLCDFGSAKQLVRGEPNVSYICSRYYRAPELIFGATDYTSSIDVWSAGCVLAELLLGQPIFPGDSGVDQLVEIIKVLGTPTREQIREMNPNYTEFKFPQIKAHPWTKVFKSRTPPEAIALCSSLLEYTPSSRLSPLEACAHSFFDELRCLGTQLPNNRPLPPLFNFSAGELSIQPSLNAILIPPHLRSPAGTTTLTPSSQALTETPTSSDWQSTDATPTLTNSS
T1 sequence (P49840 whole entry, the tested form may be a part): as the sequence (P49840 whole entry) above

For the compound `Cc1cc(C(F)(F)F)cc(C)c1-n1cnc(N)c(C(=O)Nc2cncc([C@H]3CCCCN3)c2)c1=S` [Example 162, (R)-4-amino-1-(2,6-dimethyl-4-(trifluoromethyl)phenyl)-N-(5-(piperidin-2-yl)pyridin-3-yl)-6-thioxo-1,6-dihydropyrimidine-5-carboxamide trifluoroacetate], the IC50 (as a rule, the point on the concentration scale where inhibition reaches its midpoint) in experiment [1] (read-out: Enzyme GSK3α (IC50)) was determined as 5.6 nM; in experiment [2], 5.4 nM; in experiment [3], 301 nM; in experiment [4] (read-out: Enzyme GSK3β (IC50)) it was 218 nM.
Regarding `COCc1cc(C)c(-n2cnc(N)c(C(=O)Nc3cncc([C@H]4CCCCN4)c3)c2=S)c(C)c1` [Example 163, (R)-4-amino-1-(4-(methoxymethyl)-2,6-dimethylphenyl)-N-(5-(piperidin-2-yl)pyridin-3-yl)-6-thioxo-1,6-dihydropyrimidine-5-carboxamide trifluoroacetate], the half-inhibitory concentration (IC50) in experiment [1] (read-out: Enzyme GSK3α (IC50)) stood at 5.6 nM; in experiment [2], 2.8 nM; in experiment [3] it was 205 nM; in experiment [4] (read-out: Enzyme GSK3β (IC50)), 250 nM.
For `CNCCc1c(NC(=O)c2c(N)ncn(-c3c(C)cccc3Cl)c2=O)cccc1OC` [Example 164, 4-amino-1-((S)-2-chloro-6-methylphenyl)-N-(3-methoxy-2-(2-(methylamino)ethyl)phenyl)-6-oxo-1,6-dihydropyrimidine-5-carboxamide], the IC50 in experiment [1] (read-out: Enzyme GSK3α (IC50)) was 29.4 nM; in experiment [2] it was 9.7 nM; in experiment [3] it was 1170 nM; in experiment [4] (read-out: Enzyme GSK3β (IC50)), 1850 nM.
As for `CCOc1cc(Cl)c(-n2cnc(N)c(C(=O)Nc3cncc(CNCCS(C)(=O)=O)c3)c2=O)c(Cl)c1` [Example 165, 4-amino-1-(2,6-dichloro-4-ethoxyphenyl)-N-(5-(((2-(methylsulfonyl)ethyl)amino)methyl)pyridin-3-yl)-6-oxo-1,6-dihydropyrimidine-5-carboxamide], the IC50 in experiment [1] (read-out: Enzyme GSK3α (IC50)) came out at 10.8 nM; in experiment [2], 9.3 nM; in experiment [3], 1120 nM; in experiment [4] (read-out: Enzyme GSK3β (IC50)) it was 434 nM.
Regarding `NCc1cccc(NC(=O)c2c(N)ncn(-c3c(Cl)cccc3Cl)c2=O)c1OC(F)F` [Example 170, 4-amino-N-(3-(aminomethyl)-2-(difluoromethoxy)phenyl)-1-(2,6-dichlorophenyl)-6-oxo-1,6-dihydropyrimidine-5-carboxamide trifluoroacetate], the IC50 in experiment [1] (read-out: Enzyme GSK3α (IC50)) was 21.8 nM; in experiment [2] it was 16.4 nM; in experiment [3], 526 nM; in experiment [4] (read-out: Enzyme GSK3β (IC50)), 520 nM.
Take `NCc1cccc(NC(=O)c2c(N)ncn(-c3c(Cl)cccc3Cl)c2=O)c1C(F)(F)F` [Example 171, 4-amino-N-(3-(aminomethyl)-2-(trifluoromethyl)phenyl)-1-(2,6-dichlorophenyl)-6-oxo-1,6-dihydropyrimidine-5-carboxamide]: the IC50 turned out to be 44.8 nM in experiment [1] (read-out: Enzyme GSK3α (IC50)), 30.1 nM in experiment [2], 851 nM in experiment [3] and 1280 nM in experiment [4] (read-out: Enzyme GSK3β (IC50)).
With `Nc1ncn(-c2c(O)cccc2Cl)c(=O)c1C(=O)Nc1cncc([C@@H]2CCCCN2)c1` [Example 173, (S)-4-amino-1-(2-chloro-6-hydroxyphenyl)-6-oxo-N-(5-(piperidin-2-yl)pyridin-3-yl)-1,6-dihydropyrimidine-5-carboxamide], the half-maximal inhibitory concentration (IC50) in experiment [1] (Enzyme GSK3α (IC50)) worked out at 1880 nM; in experiment [2] it was 1510 nM; in experiment [3] it was 25000 nM; in experiment [4] (Enzyme GSK3β (IC50)), 10000 nM.
On to `CCC[C@@H](N)c1cncc(NC(=O)c2c(N)ncn(-c3c(C)cc(COC)cc3C)c2=O)c1` [Example 176, (R)-4-amino-N-(5-(1-aminobutyl)pyridin-3-yl)-1-(4-(methoxymethyl)-2,6-dimethylphenyl)-6-oxo-1,6-dihydropyrimidine-5-carboxamide], for which the IC50 in experiment [1] (read-out: Enzyme GSK3α (IC50)) is 5.1 nM; in experiment [2] it was 2.6 nM; in experiment [3], 190 nM; in experiment [4] (read-out: Enzyme GSK3β (IC50)) it was 272 nM.
As to `COc1cc(Cl)c(-n2cnc(N)c(C(=O)Nc3cncc(C4(N)CCC4)c3)c2=O)c(Cl)c1` [Example 179, 4-amino-N-(5-(1-aminocyclobutyl)pyridin-3-yl)-1-(2,6-dichloro-4-methoxyphenyl)-6-oxo-1,6-dihydropyrimidine-5-carboxamide], the IC50 worked out at 3.7 nM in experiment [1] (read-out: Enzyme GSK3α (IC50)), 3.3 nM in experiment [2], 179 nM in experiment [3] and 257 nM in experiment [4] (read-out: Enzyme GSK3β (IC50)).
On the same counts, the results for `COc1cc(Cl)c(-n2cnc(N)c(C(=O)Nc3cncc(C4(N)CC4)c3)c2=O)c(Cl)c1` [Example 181, 4-amino-N-(5-(1-aminocyclopropyl)pyridin-3-yl)-1-(2,6-dichloro-4-methoxyphenyl)-6-oxo-1,6-dihydropyrimidine-5-carboxamide] are 7.9 nM, 7 nM, 491 nM and 536 nM.
Consider `COc1cc(Cl)c(-n2cnc(N)c(C(=O)Nc3cncc(C4(N)CCOCC4)c3)c2=O)c(Cl)c1` [Example 182, 4-amino-N-(5-(4-aminotetrahydro-2H-pyran-4-yl)pyridin-3-yl)-1-(2,6-dichloro-4-methoxyphenyl)-6-oxo-1,6-dihydropyrimidine-5-carboxamide], for which the IC50 in experiment [1] (read-out: Enzyme GSK3α (IC50)) was 17.4 nM; in experiment [2], 8.2 nM; in experiment [3], 643 nM; in experiment [4] (read-out: Enzyme GSK3β (IC50)), 915 nM.
Turning to `CCOc1cc(Cl)c(-n2cnc(N)c(C(=O)Nc3cncc(C4(N)CCC4)c3)c2=O)c(Cl)c1` [Example 183, 4-amino-N-(5-(1-aminocyclobutyl)pyridin-3-yl)-1-(2,6-dichloro-4-ethoxyphenyl)-6-oxo-1,6-dihydropyrimidine-5-carboxamide], the IC50 was 7.9 nM in experiment [1] (read-out: Enzyme GSK3α (IC50)), 5 nM in experiment [2], 300 nM in experiment [3] and 576 nM in experiment [4] (read-out: Enzyme GSK3β (IC50)).
As to `Cc1cc(C(C)(F)F)cc(C)c1-n1cnc(N)c(C(=O)Nc2cncc([C@H]3CCCCN3)c2)c1=O` [Example 186, (R)-4-amino-1-(4-(1,1-difluoroethyl)-2,6-dimethylphenyl)-6-oxo-N-(5-(piperidin-2-yl)pyridin-3-yl)-1,6-dihydropyrimidine-5-carboxamide], the IC50 in experiment [1] (read-out: Enzyme GSK3α (IC50)) was 4.4 nM; in experiment [2], 2.1 nM; in experiment [3], 152 nM; in experiment [4] (read-out: Enzyme GSK3β (IC50)), 169 nM.
On the same counts, the results for `COc1cc(Cl)c(-n2cnc(N)c(C(=O)Nc3cncc4c3CCC43CCCN3)c2=O)c(Cl)c1` (stereo not shown) [Example 192, 4-amino-1-(2,6-dichloro-4-methoxyphenyl)-N-(5,6-dihydrospiro[cyclopenta[c]pyridine-7,2′-pyrrolidin]-4-yl)-6-oxo-1,6-dihydropyrimidine-5-carboxamide] are 1.8 nM, 1.4 nM, 18.8 nM and 14.7 nM.
Regarding `Nc1ncn(-c2c(Cl)cc(OC(F)F)cc2Cl)c(=O)c1C(=O)Nc1cccc([C@@H]2CCCN2)c1` [Example 193, (S)-4-amino-1-(2,6-dichloro-4-(difluoromethoxy)phenyl)-6-oxo-N-(3-(pyrrolidin-2-yl)phenyl)-1,6-dihydropyrimidine-5-carboxamide], the IC50 was determined as 9.2 nM in experiment [1] (read-out: Enzyme GSK3α (IC50)), 6.8 nM in experiment [2], 487 nM in experiment [3] and 481 nM in experiment [4] (read-out: Enzyme GSK3β (IC50)).
Take `Nc1ncn(-c2c(Cl)cc(OC3CC3)cc2Cl)c(=O)c1C(=O)Nc1cncc([C@@H]2CCCN2)c1` [Example 194, (S)-4-amino-1-(2,6-dichloro-4-cyclopropoxyphenyl)-6-oxo-N-(5-(pyrrolidin-2-yl)pyridin-3-yl)-1,6-dihydropyrimidine-5-carboxamide]: the IC50 in experiment [1] (read-out: Enzyme GSK3α (IC50)) worked out at 6.2 nM; in experiment [2], 5.1 nM; in experiment [3], 330 nM; in experiment [4] (read-out: Enzyme GSK3β (IC50)), 302 nM.

These data come from patent US20260327191A1, “GSK3a INHIBITORS AND METHODS OF USE THEREOF” (Blueprint Medicines Corporation, priority 2023, published 2026).
